# Test results taken from ChEMBL document CHEMBL1201862, “PubChem BioAssay data set” (2004).
# The source made the active and inactive calls. For most assays here, no stated cut-off is given here; in the data, actives have a measured EC50 and inactives only a lower limit.
# Columns and labels:
# Cytochrome P450 2C9 = Cytochrome P450 2C9 (Homo sapiens, UniProt P11712)
# Cytochrome P450 3A4 = Cytochrome P450 3A4 (Homo sapiens, UniProt P08684);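 further: CYP3A4 tested as one member of a cytochrome P450 panel screen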
# [1] = Trypanosoma cruzi growth suppression in host cells – NIH3T3 host cells, beta-gal luminescence, confirmation (AID 2044); type: functional, cell-based;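 further: intracellular parasites grown in NIH/3T3 mouse fibroblasts as host cells; luminescent beta-galactosidase reporter signal from transgenic T. cruzi replicating inside host cells; inhibitors lower the luminescence signal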
# [2] = NIH3T3 cell viability loss – ATP luminescence, mouse fibroblasts, counter-screen, dose response (AID 2010); type: functional, cell-based;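 further: cells exposed to compound for about 90 hours before reading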
# [3] = Luminescence Cell-Based Dose Confirmation HTS to Identify Activators of 5'UTR Stem-Loop Driven Alpha-Synuclein mRNA Translation in H4 Neuroglioblastoma Cells. [Related pubchem assays: 1829 (Project Summary), 1814 (Primary HTS)]; type: functional
# H4 = test: Luminescence Cell-Based Dose Response HTS to Identify Activators of 5'UTR Stem-Loop Driven Prion Protein mRNA Translation in H4 Neuroglioblastoma Cells. [Related pubchem assays: 1829 (Project Summary), 1814 (Primary HTS)]; type: functional; details: Homo sapiens
# [4] = Luminescence Cell-Based Dose Response HTS to Identify Activators of Luciferase Translation or Activity in H4 […] Cells. [Related pubchem assays: 1829 (Project Summary), 1814 (Primary HTS)]; type: functional
# Streptococcus = test: GAS UMAA2166 growth inhibition – luminescence, BacTiterGlo, counter-screen for streptokinase expression inhibitor project, dose response (AID 1915); type: functional, organism-based;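 further: potency for reduction of bacterial viability or growth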
# [5] = tested on: Streptococcus sp. 'group A'; test: Streptococcus pyogenes SK(-)GAS viability under kanamycin – luminescence, BacTiterGlo, confirmation, counter-screen for streptokinase expression inhibitor project, dose response (AID 1900); type: functional, organism-based
# [6] = biological target: T1, Corticotropin-releasing factor receptor 2/Corticotropin-releasing factor-binding protein (Homo sapiens, UniProt P24387+Q13324); test: activators of CRF receptor 2 with binding protein – uHTS hits, confirmation (AID 602473); type: functional; details: read-out: EC50_Mean
# T1 sequence (Q13324 whole entry): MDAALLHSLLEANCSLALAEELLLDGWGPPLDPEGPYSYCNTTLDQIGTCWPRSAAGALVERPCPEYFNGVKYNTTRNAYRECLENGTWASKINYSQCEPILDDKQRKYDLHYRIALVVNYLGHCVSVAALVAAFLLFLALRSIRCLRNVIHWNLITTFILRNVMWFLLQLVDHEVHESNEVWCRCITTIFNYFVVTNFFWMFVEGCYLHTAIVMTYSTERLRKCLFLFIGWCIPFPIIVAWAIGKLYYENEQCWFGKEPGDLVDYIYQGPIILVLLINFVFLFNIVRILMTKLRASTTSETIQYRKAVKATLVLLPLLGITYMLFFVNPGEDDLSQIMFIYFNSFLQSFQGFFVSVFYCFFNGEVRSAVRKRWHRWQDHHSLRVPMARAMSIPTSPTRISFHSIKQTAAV
# T1 sequence (P24387 whole entry): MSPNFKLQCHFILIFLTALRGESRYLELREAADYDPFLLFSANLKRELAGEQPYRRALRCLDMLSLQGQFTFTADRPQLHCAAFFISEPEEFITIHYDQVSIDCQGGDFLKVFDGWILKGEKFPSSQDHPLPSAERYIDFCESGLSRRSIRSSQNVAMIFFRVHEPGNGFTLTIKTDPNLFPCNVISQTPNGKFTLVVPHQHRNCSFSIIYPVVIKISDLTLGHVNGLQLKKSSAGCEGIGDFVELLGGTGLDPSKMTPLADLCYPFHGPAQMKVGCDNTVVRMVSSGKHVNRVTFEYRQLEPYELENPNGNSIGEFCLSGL
# Cytochrome P450 2C9, sequence (P11712 whole entry): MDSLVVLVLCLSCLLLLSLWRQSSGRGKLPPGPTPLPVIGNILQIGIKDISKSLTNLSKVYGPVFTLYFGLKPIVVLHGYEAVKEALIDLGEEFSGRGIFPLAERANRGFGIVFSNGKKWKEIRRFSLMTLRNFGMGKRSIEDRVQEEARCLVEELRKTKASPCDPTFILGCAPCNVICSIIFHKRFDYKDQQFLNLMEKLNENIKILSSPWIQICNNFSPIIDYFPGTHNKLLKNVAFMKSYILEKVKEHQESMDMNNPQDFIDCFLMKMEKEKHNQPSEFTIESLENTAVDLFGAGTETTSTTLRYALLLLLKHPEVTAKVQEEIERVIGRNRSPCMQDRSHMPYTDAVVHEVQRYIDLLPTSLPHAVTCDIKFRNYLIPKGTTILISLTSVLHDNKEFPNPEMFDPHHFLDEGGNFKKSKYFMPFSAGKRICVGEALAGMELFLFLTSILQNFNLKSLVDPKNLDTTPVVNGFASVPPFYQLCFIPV
# Cytochrome P450 3A4, sequence (P08684 whole entry): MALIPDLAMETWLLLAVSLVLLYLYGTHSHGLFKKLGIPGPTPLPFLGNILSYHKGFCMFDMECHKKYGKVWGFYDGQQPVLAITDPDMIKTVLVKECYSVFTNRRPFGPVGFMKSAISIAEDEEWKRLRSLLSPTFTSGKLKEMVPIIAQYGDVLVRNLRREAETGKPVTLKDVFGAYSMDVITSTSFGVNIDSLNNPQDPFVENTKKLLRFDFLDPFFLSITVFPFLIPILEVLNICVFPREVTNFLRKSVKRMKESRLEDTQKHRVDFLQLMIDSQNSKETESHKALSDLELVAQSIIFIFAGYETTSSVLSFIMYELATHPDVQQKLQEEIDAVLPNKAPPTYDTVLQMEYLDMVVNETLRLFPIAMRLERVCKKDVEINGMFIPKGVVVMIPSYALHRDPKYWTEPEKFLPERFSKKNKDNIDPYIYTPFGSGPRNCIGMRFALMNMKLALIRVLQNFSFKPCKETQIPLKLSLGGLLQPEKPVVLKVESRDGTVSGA
Compound,EC50 [3],EC50 (H4),EC50 [4],other results
COc1ccc(N=C(S)Nc2ncccc2C)c(OC)c1,–,–,–,AC50 (Cytochrome P450 2C9): 20 µM (inconclusive); AC50 (Cytochrome P450 3A4): 39.8 µM (inconclusive)
Cc1cccc2nc(-c3ccccc3)nc(N3CCC(O)(c4ccc(Cl)cc4)CC3)c12,–,–,–,EC50 [1]: 0.301 µM (active); EC50 [2]: > 60 µM (not active)
Cc1nc(S(=O)(=O)N(C)c2ccccc2)c(C#N)c(C)c1Cl,–,–,–,AC50 (Cytochrome P450 2C9): 17.8 µM (inconclusive)
Nc1nonc1-c1noc(CCCN2C(=O)c3ccccc3C2=O)n1,12.9 µM (active),15.7 µM (active),12.1 µM (active),–
CC(c1ccon1)N(C)Cc1c[nH]nc1-c1ccc(-c2ccccc2)cc1 (stereo unspecified),> 120 µM (not active),> 120 µM (not active),30.5 µM (active),–
CCCCn1nc(C(=O)Nc2nc3c(s2)CCCC3)c2ccccc2c1=O,–,–,–,EC50 [1]: 1.73 µM (active); EC50 [2]: > 60 µM (inconclusive)
CCc1nnc(NC(=O)/C=C/c2ccco2)s1,13.7 µM (active),6.44 µM (active),54.5 µM (active),–
CC1CNC(=Nc2cccc3ccccc23)S1 (stereo unspecified),–,–,–,AC50 (Cytochrome P450 2C9): 14.1 µM (inconclusive); AC50 (Cytochrome P450 3A4): 15.8 µM (inconclusive)
CC1CCN(CC(=O)Nc2cccc([N+](=O)[O-])c2)CC1,–,–,–,AC50 (Cytochrome P450 2C9): 15.8 µM (inconclusive)
COc1cc(/C=C/C(=O)OCC(=O)c2c(N)n(C)c(=O)n(C)c2=O)ccc1OCC#N,–,–,–,EC50 (Streptococcus): 4.1 µM (active); EC50 [5]: 7.23 µM (active)
Cc1nn(C(C)C(=O)N2CCc3ccccc32)c(C)c1[N+](=O)[O-] (stereo unspecified),–,–,–,AC50 (Cytochrome P450 3A4): 17.8 µM (inconclusive)
O=C(Nc1ccc2c(c1)OCO2)N1CCN(c2ccccc2)CC1,> 120 µM (not active),10.3 µM (active),16.2 µM (active),–
CS(=O)(=O)N(Cc1ccccc1)c1ccc(C(=O)N2CCOCC2)cc1,–,–,–,EC50 [6]: > 53 µM (inactive)
Cc1ccc(OCCn2cnc3ccccc3c2=O)c([N+](=O)[O-])c1,0.247 µM (active),–,2.44 µM (active),–
C=CCN=C(S)N1CCN(c2ncc3c(=O)c(C(=O)O)cn(CC)c3n2)CC1,–,–,–,AC50 (Cytochrome P450 2C9): 0.224 µM (inconclusive)
CCOC(=O)Cc1cc(-c2ccc(OC)cc2)nc2ccc3ccccc3c12,9.64 µM (active),15.6 µM (active),12.6 µM (active),–
COc1ccc(C(=N)NOC(=O)c2c(-c3ccccc3Cl)noc2C)cc1OC,–,–,–,EC50 [1]: 1.49 µM (active); EC50 [2]: 10.7 µM (active)
COC(=O)c1ccc(N2OC3(C)C=CC2CC3)cc1 (stereo unspecified),9.96 µM (active),13.5 µM (active),5.16 µM (active),–
O=C(CCOc1ccccc1)Nc1ccccc1,–,–,–,AC50 (Cytochrome P450 2C9): 1 µM (inconclusive); AC50 (Cytochrome P450 3A4): 22.4 µM (inconclusive)
CCOC(=O)C1CCN(c2nnc(N3CCCC3=O)s2)CC1,3.42 µM (active),33 µM (active),6.58 µM (active),–
Cc1ccc(CN2C(=O)N/C(=C/c3cc(C)n(-c4ccccn4)c3C)C2=O)cc1,11.9 µM (active),> 120 µM (not active),7.26 µM (active),–
CCOC(=O)c1c(NC(=O)CSc2nnc(-c3ccncc3)n2Cc2ccco2)sc(C)c1C,–,–,–,EC50 [1]: 2.9 µM (active); EC50 [2]: > 60 µM (not active)
CN(CCNC(=O)C1CC(=O)N(c2ccc(F)c(Cl)c2)C1)Cc1ccccc1 (stereo unspecified),–,–,–,EC50 [1]: 0.22 µM (active); EC50 [2]: > 60 µM (not active)
Cc1ncc(CC(=O)n2cc(C(=O)c3cc(Cl)ccc3O)cn2)s1,16.5 µM (active),40.2 µM (active),> 120 µM (not active),–
CC1CCC(=C(C#N)c2nc(-c3cc4ccccc4oc3=O)cs2)CC1 (stereo unspecified),–,–,0.106 µM (active),–
Cc1ccc(S(=O)(=O)Nc2ccc(N3CCN(C)CC3)nc2)cc1,–,–,–,EC50 [1]: 1.26 µM (active); EC50 [2]: > 60 µM (not active)

Compound,EC50 [3],EC50 (H4),EC50 [4],other results
COc1ccc(-c2cc(-c3ccccc3)c(C#N)c(SCC(=O)Nc3ncc(C)s3)n2)cc1,–,–,–,EC50 [1]: > 60 µM (not active); EC50 [2]: > 60 µM (inconclusive)
Cc1ccc(N2CCN(c3ccc(C)cc3)C2c2cccnc2)cc1,–,–,–,EC50 [1]: 0.768 µM (active); EC50 [2]: > 60 µM (not active)
CC1(C)CC(=O)c2cc(NC=C(C(=O)c3ccccc3)C(=O)c3ccccc3)c(=O)oc2C1,15.6 µM (active),> 120 µM (not active),> 60 µM (not active),–
Nn1c(CSc2ccccn2)nc2ccccc2c1=O,42.9 µM (active),23.3 µM (active),35.2 µM (active),–
CN(C)c1ccc(-c2nccc(Nc3ccc(F)cc3)n2)cc1,–,–,–,AC50 (Cytochrome P450 2C9): 0.631 µM (inconclusive)
Cc1cccc(CCN2CCN=C2Nc2ccccc2)c1,–,–,–,EC50 [6]: 14 µM (active)
O=C(c1c[nH]cc1-c1ccccc1)c1cccc2ccccc12,–,–,–,EC50 [1]: 1.93 µM (active); EC50 [2]: 4.49 µM (active)
Sc1ncnc2scc(-c3ccc(Cl)cc3)c12,–,–,–,EC50 (Streptococcus): 47.4 µM (active); EC50 [5]: 13.1 µM (active)
O=C(Nc1ccc2c[nH]nc2c1)c1ccc(Cl)c(S(=O)(=O)N2CCOCC2)c1,6.56 µM (active),27.6 µM (active),42.2 µM (active),–
COc1ccc(C(CNc2ccc(S(=O)(=O)N3CCCC3)cc2[N+](=O)[O-])N2CCCC2)cc1 (stereo unspecified),–,–,–,EC50 [1]: 0.843 µM (active); EC50 [2]: 31.8 µM (active)
CC(C)CC(=O)Nc1ccc(C(=O)COC(=O)Cc2n[nH]c(=O)c3ccccc23)cc1,–,–,–,EC50 [6]: 12.4 µM (active)
O=C(CCN1C(=O)S/C(=C\C=C\c2ccccc2)C1=O)Nc1ccc(O)cc1,–,8.5 µM (active),0.155 µM (active),–
COc1ccc(C(=O)C2=C(O)C(=O)N(c3cc(C)on3)C2c2ccc(OC)c(OC)c2)cc1OC (stereo unspecified),–,–,–,AC50 (Cytochrome P450 3A4): 22.4 µM (inconclusive)
COc1ccc2nc(N3CCN(C(=O)C4COc5ccccc5O4)CC3)sc2c1 (stereo unspecified),4.45 µM (active),12.8 µM (active),30.7 µM (active),–
S=C(NCc1ccco1)N1CCN(Cc2ccco2)CC1,–,–,–,AC50 (Cytochrome P450 2C9): 14.1 µM (inconclusive)
CC1=C(C#N)C(Nc2ccc(Cl)cn2)(C(F)(F)F)C(=O)N1 (stereo unspecified),–,–,–,AC50 (Cytochrome P450 3A4): 15.8 µM (inconclusive)
CCN(CC)c1nc(C=Cc2ccc(N(C)C)cc2)c2nccnc2n1,–,–,–,EC50 [6]: 2.56 µM (active)
O=C(COc1ccc(F)cc1)N(Cc1cccs1)C1CCS(=O)(=O)C1 (stereo unspecified),–,–,–,EC50 [6]: > 53 µM (inactive)
C/C(=N\NC(=S)Nc1cccc(C)c1)c1ccco1,–,–,–,EC50 [1]: 2.8 µM (active); EC50 [2]: > 60 µM (not active)
O=C(O)c1cc2c(cc1S(=O)(=O)O)[C@H]1[C@@H](C3[C@H]2[C@@]2(Cl)C(Cl)=C(Cl)[C@@]3(Cl)C2(Cl)Cl)[C@]2(Cl)C(Cl)=C(Cl)[C@]1(Cl)C2(Cl)Cl (stereo partly specified),–,–,–,AC50 (Cytochrome P450 3A4): 3.16 µM (inconclusive)
COc1ccc(-c2c/c(=N/c3c(C)n(C)n(-c4ccccc4)c3=O)c3ccccc3o2)cc1,11.1 µM (active),2.02 µM (active),11.1 µM (active),–
COC(=O)c1ccc(-c2ccc(/C=N/N3C(=O)C4C5C=CC(CC5)C4C3=O)o2)cc1 (stereo unspecified),6.71 µM (active),18.9 µM (active),19.5 µM (active),–
COc1ccc(/C=C(\NC(=O)c2ccccc2)C(=O)N/N=C/c2ccncc2)cc1,–,–,–,AC50 (Cytochrome P450 2C9): 12.6 µM (active)
CC(=N)/C(C#N)=C(/O)CSc1nnc(Nc2cccc(C)c2)s1,10.1 µM (active),> 120 µM (not active),45.1 µM (active),–
COc1cc(C=C(C#N)C#N)cc(O)c1O,–,–,–,AC50 (Cytochrome P450 3A4): 10 µM (inconclusive)
